# Measured values as given in patent publication US11339151B2, “Aliphatic acid amide derivative” (Sumitomo Dainippon Pharma Co., Ltd., priority 2019, dated 2022).
# Columns and labels:
# [1] = Test 3-1: metabolic stability test in human hepatic microsome; assay type: in vitro ADME; settings: microsome 0.1 mg/mL, test compound 0.1 μmol/L, 37° C., 30 minutes
# Protocol: Test 3-1: Metabolic Stability Test in Human Hepatic Microsome
# The metabolic stability of the present compound in human hepatic microsome was evaluated as mentioned below. Human hepatic microsome was obtained from Xenontech. Human hepatic microsome, NADPH, and each test compound were mixed in 25 mmol/L phosphate buffer solution (pH 7.4) to reach the following concentrations as shown below, and the mixture was incubated at 37° C. for 30 minutes. • Human hepatic microsome: 0.1 mg/mL • NADPH: 3.2 mmol/L • Test compound: 0.1 μmol/L
# The residual ratio of test compound in each sample after 30 minutes was measured by LC-MS, and the metabolic stability in human hepatic microsome was calculated from the following formula. Metabolic stability in human hepatic microsome (mL/min/mg protein)=−LN (residual ratio)/30/0.1
# human D2 receptor = human D2 receptor (Homo sapiens (Human), UniProt P14416); assay: Test 1: binding activity for human D2 receptor ([3H]Spiperone, CHO cell membrane fraction); settings: [3H]Spiperone, room temperature 60 minutes
# human D2 receptor, sequence (P14416 whole entry): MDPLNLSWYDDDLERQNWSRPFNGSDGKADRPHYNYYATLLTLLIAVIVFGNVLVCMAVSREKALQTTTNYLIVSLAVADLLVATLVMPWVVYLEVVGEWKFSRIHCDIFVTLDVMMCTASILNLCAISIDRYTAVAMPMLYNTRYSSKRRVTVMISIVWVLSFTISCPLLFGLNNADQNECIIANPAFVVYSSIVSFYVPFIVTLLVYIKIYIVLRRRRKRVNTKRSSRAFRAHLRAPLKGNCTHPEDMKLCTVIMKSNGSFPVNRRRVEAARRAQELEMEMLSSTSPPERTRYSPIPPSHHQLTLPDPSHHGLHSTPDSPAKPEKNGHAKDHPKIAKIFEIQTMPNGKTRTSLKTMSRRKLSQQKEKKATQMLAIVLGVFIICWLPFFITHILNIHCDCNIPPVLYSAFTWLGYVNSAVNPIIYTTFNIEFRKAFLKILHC
# Protocol: (§1) Ki value was evaluated from dissociation constant which was calculated from saturated binding tests, and a substrate concentration, and it was used as an index for binding affinity.
# human 5-HT7 receptor [2] = biological target: T1, human 5-HT7 receptor (Homo sapiens (Human), UniProt P34969); assay: Test 2: antagonist activity for human 5-HT7 receptor (aequorin luminescence, CHO-K1 cells); assay type: cell-based; settings: Gα16
# T1 sequence (P34969 whole entry): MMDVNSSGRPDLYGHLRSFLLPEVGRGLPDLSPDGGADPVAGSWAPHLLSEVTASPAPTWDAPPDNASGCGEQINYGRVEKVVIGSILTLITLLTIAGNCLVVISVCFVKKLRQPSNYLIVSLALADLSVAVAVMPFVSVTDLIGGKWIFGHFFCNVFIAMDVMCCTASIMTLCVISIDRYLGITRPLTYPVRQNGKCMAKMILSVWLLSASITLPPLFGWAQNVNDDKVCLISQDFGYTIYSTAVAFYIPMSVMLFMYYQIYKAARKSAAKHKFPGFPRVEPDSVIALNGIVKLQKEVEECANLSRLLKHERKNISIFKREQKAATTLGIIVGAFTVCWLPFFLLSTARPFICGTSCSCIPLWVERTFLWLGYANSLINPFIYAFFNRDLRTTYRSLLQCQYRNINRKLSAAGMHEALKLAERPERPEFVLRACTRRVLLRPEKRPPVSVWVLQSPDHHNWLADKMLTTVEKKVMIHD
# Protocol: Test 2: Evaluation of Antagonist Activity for Human 5-HT2A Receptor and Human 5-HT7 Receptor
# Aequorin, Gα 16 protein, and each receptor were transiently expressed in CHO-K1 cells (Chinese hamster ovary). The cells were cultivated in a CO2 incubator at 37° C. overnight, seeded into a 384-well plate, and stood at room temperature for 2 hours. Each compound dissolved in DMSO was added thereto, and changes in luminescence were measured by FDSS/μCELL drug discovery screening support system (Hamamatsu Photonics K.K.). As for antagonist activity, inhibitory activity of each compound was calculated by setting the luminescence level of wells to which 10 μmol/L endogenous ligand was added as 100%.
# human 5-HT7 receptor [3] = biological target: T1, human 5-HT7 receptor; assay: Test 1: binding activity for human 5-HT7 receptor ([3H]SB-269970, CHO cell membrane fraction); settings: [3H]SB-269970, room temperature 60 minutes
# Protocol: as §1
# hERG channel = hERG channel (Homo sapiens (Human), UniProt Q12809); assay: Test 5: inhibitory activity for hERG channel (whole cell patch clamp, hERG-CHO cells); assay type: cell-based; settings: hERG-CHO cells, auto patch clamp
# hERG channel, sequence (Q12809 whole entry): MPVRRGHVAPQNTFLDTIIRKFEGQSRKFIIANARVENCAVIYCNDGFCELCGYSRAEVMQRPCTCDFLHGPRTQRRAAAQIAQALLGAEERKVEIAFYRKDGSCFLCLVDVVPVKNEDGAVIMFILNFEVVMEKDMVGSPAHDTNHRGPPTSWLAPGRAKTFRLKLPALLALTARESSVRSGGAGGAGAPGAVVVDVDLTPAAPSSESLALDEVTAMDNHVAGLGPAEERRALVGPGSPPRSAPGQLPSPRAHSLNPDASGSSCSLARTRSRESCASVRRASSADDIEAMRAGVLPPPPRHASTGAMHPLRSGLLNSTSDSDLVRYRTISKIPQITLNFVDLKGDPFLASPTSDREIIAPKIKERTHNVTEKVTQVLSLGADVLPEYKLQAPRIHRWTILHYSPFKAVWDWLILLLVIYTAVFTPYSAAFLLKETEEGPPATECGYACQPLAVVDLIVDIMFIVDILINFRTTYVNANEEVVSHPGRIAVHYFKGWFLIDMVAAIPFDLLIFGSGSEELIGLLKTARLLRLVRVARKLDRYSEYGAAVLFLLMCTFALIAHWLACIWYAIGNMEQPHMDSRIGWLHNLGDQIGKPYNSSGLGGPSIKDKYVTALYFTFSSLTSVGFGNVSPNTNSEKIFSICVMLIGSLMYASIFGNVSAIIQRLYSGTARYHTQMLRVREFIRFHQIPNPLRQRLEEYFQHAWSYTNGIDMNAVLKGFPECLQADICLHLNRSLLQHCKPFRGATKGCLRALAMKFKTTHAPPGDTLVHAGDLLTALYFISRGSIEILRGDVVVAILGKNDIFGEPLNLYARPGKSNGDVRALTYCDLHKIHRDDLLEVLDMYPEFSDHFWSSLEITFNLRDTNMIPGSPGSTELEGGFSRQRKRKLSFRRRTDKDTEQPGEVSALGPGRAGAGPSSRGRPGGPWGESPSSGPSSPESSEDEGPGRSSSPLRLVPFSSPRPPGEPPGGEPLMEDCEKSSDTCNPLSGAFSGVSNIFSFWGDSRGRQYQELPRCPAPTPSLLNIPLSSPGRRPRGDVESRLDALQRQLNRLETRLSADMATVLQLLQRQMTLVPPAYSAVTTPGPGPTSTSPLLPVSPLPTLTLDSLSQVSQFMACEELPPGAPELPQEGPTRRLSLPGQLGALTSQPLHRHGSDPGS
# Protocol: Test 5: Evaluation of Inhibitory Activity for hERG Channel
# Inhibitory activity of the present compound for hERG channel was measured by whole cell patch clamp method with an auto patch clamp system using CHO cells in which hERG channel involved in human rapidly activating delayed rectifier potassium current (IKr) was forcibly expressed.
# hERG-CHO cells purchased from ChanTest Cop. were cultured in a CO2 incubator at 37° C., and dissociated from a flask with trypsin shortly before the measurement of hERG current to prepare a cell suspension.
# The cell suspension, the extracellular fluid, the intracellular fluid, and the measurement plate were set in an auto patch clamp system, and hERG current was measured by whole cell patch clamp method. […] Each pulse interval was 15 seconds. The data analysis was carried out with Qube Assay Software (Sophion Sophion). The test was carried out by applying incrementally 4 concentrations of each test compound, and the average of the maximum peak tail currents which were obtained from the last 3 stimulations in each concentration was determined as the evaluated data.
compound,measurement,setting,value
CCN(CCN1CCC(c2noc3cc(F)ccc23)CC1)C(=O)C(O)CCC(=O)OC (stereo not drawn) [Example 5],Metabolic stability in human hepatic microsome,[1],0.186 mL/min/mg protein
same,Ki,human D2 receptor,116 nM
same,IC50,human 5-HT7 receptor [2],66 nM
same,Ki,human 5-HT7 receptor [3],2.4 nM
same,IC50,hERG channel,1100 nM
CCN(CCN1CCC(c2noc3cc(F)ccc23)CC1)C(=O)C(O)C(F)(F)F (stereo not drawn) [Example 34],Metabolic stability in human hepatic microsome,[1],<0.05 mL/min/mg protein
same,Ki,human D2 receptor,247 nM
same,IC50,human 5-HT7 receptor [2],78 nM
same,Ki,human 5-HT7 receptor [3],4.6 nM
same,IC50,hERG channel,7300 nM
"CCN(CCN1CCC(c2n[nH]c3cc(F)ccc23)CC1)C(=O)C(C)O (stereo not drawn) [Example 19, N-Ethyl-N-{2-[4-(6-fluoro-1H-indazol-3-yl)piperidin-1-yl]ethyl}-2-hydroxypropanamide]",Metabolic stability in human hepatic microsome,[1],<0.05 mL/min/mg protein
same,Ki,human D2 receptor,105 nM
same,IC50,human 5-HT7 receptor [2],61 nM
same,Ki,human 5-HT7 receptor [3],2.3 nM
same,IC50,hERG channel,> 10000 nM
CCN(CCN1CCC(n2ncc3cc(F)ccc32)CC1)S(=O)(=O)CCO [Example 63],Metabolic stability in human hepatic microsome,[1],<0.05 mL/min/mg protein
same,Ki,human D2 receptor,532 nM
same,IC50,human 5-HT7 receptor [2],46 nM
same,Ki,human 5-HT7 receptor [3],6.9 nM
same,IC50,hERG channel,14500 nM
CCN(CCCN1CCC(c2noc3cc(F)ccc23)CC1)C(=O)[C@H](C)O [Example 38],Metabolic stability in human hepatic microsome,[1],<0.05 mL/min/mg protein
same,Ki,human D2 receptor,352 nM
same,IC50,human 5-HT7 receptor [2],59 nM
same,Ki,human 5-HT7 receptor [3],9.6 nM
same,IC50,hERG channel,> 10000 nM
CC(O)C(=O)N(CCN1CCC(c2noc3cc(F)ccc23)CC1)C(C)C (stereo not drawn) [Example 31],Metabolic stability in human hepatic microsome,[1],<0.05 mL/min/mg protein
same,Ki,human D2 receptor,89 nM
same,IC50,human 5-HT7 receptor [2],64 nM
same,Ki,human 5-HT7 receptor [3],1.2 nM
same,IC50,hERG channel,3100 nM
CCN(CCCN1CCC(c2noc3cc(F)ccc23)CC1)S(=O)(=O)CCO [Example 53],Metabolic stability in human hepatic microsome,[1],<0.05 mL/min/mg protein
same,Ki,human D2 receptor,< 100 nM
same,IC50,human 5-HT7 receptor [2],44 nM
same,Ki,human 5-HT7 receptor [3],1.4 nM
same,IC50,hERG channel,7200 nM
CCN(CCN1CCC(c2noc3cc(F)ccc23)CC1)C(=O)C(C)(C)CO [Example 7],Metabolic stability in human hepatic microsome,[1],0.08 mL/min/mg protein
same,Ki,human D2 receptor,79 nM
same,IC50,human 5-HT7 receptor [2],11 nM
same,Ki,human 5-HT7 receptor [3],1 nM
same,IC50,hERG channel,3500 nM
CCN(CCN1CCC(c2noc3ccc(C)cc23)CC1)S(=O)(=O)CCO [Example 59],Metabolic stability in human hepatic microsome,[1],0.079 mL/min/mg protein
same,Ki,human D2 receptor,> 1000 nM
same,IC50,human 5-HT7 receptor [2],62 nM
same,Ki,human 5-HT7 receptor [3],13.6 nM
same,IC50,hERG channel,> 10000 nM
"CCN(CCN1CCC(c2c[nH]c3ccccc23)CC1)C(=O)C(C)O (stereo not drawn) [Example 22, N-Ethyl-2-hydroxy-N-{2-[4-(1H-indol-3-yl)piperidin-1-yl]ethyl}propanamide]",Metabolic stability in human hepatic microsome,[1],<0.05 mL/min/mg protein
same,Ki,human D2 receptor,528 nM
same,IC50,human 5-HT7 receptor [2],40 nM
same,Ki,human 5-HT7 receptor [3],5.8 nM
same,IC50,hERG channel,> 10000 nM
CCN(CCN1CCC(c2noc3ccc(F)cc23)CC1)C(=O)[C@H](C)O [Example 45],Metabolic stability in human hepatic microsome,[1],<0.05 mL/min/mg protein
same,Ki,human D2 receptor,> 300 nM
same,IC50,human 5-HT7 receptor [2],49 nM
same,Ki,human 5-HT7 receptor [3],22.6 nM
same,IC50,hERG channel,> 10000 nM
CCN(CCN1CCC(c2c[nH]c3ccccc23)CC1)C(=O)[C@@H](C)O [Example 49],Metabolic stability in human hepatic microsome,[1],<0.05 mL/min/mg protein
same,Ki,human D2 receptor,> 1000 nM
same,IC50,human 5-HT7 receptor [2],16 nM
same,Ki,human 5-HT7 receptor [3],22.6 nM
same,IC50,hERG channel,> 10000 nM
"CCN(CCN1CCC(n2ncc3cc(F)ccc32)CC1)C(=O)CCO [Example 2, N-Ethyl-N-{2-[4-(5-fluoro-1H-indazol-1-yl)piperidin-1-yl]ethyl}-3-hydroxypropanamide]",Metabolic stability in human hepatic microsome,[1],<0.05 mL/min/mg protein
same,Ki,human D2 receptor,> 1000 nM
same,IC50,human 5-HT7 receptor [2],94 nM
same,Ki,human 5-HT7 receptor [3],9.3 nM
same,IC50,hERG channel,7400 nM
CCN(CCN1CCN(c2noc3ccccc23)CC1)C(=O)C(C)O (stereo not drawn) [Example 26],Metabolic stability in human hepatic microsome,[1],<0.05 mL/min/mg protein
same,Ki,human D2 receptor,> 10000 nM
same,IC50,human 5-HT7 receptor [2],71 nM
same,Ki,human 5-HT7 receptor [3],22.1 nM
same,IC50,hERG channel,> 10000 nM
CC(C)N(CCN1CCC(c2noc3cc(F)ccc23)CC1)C(=O)CCO [Example 35],Metabolic stability in human hepatic microsome,[1],<0.05 mL/min/mg protein
same,Ki,human D2 receptor,< 100 nM
same,IC50,human 5-HT7 receptor [2],81 nM
same,Ki,human 5-HT7 receptor [3],3.8 nM
same,IC50,hERG channel,4300 nM
